Measured values: PubChem BioAssay (NCI)
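How tested: cells in 96-well plates exposed to compound for 48 hours at five concentrations. TGI denotes the concentration required for complete inhibition of growth.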

Key:
Assay in all cases: NCI anticancer screen, dose series, 48 h
OVCAR-3 ovarian = tested on: OVCAR-3 ovarian
M14 melanoma = tested on: M14 melanoma
RPMI-8226 leukemia = tested on: RPMI-8226 leukemia
HCC-2998 colon = tested on: HCC-2998 colon
K-562 leukemia = tested on: K-562 leukemia
SW-620 colon = tested on: SW-620 colon
HT29 colon = tested on: HT29 colon
UACC-257 melanoma = tested on: UACC-257 melanoma

Row | SMILES | TGI (OVCAR-3 ovarian) | TGI (M14 melanoma) | TGI (RPMI-8226 leukemia) | TGI (HCC-2998 colon) | TGI (K-562 leukemia) | TGI (SW-620 colon) | TGI (HT29 colon) | TGI (UACC-257 melanoma)
1 | C[C@@H]1CC2(C[C@@H](C)C3[C@@H](CC4(C)CCCC5C6=CC(O)(CC[C@]34C)OC6=CC(=O)OC5(C)C)O2)OC1=O (some centres undefined) | > 100 µM | > 100 µM | > 100 µM | > 100 µM | > 100 µM | > 100 µM | – | –
2 | COc1cccc(C=NC23CC4CC(CC(C4)C2)C3)c1 | > 100 µM | > 100 µM | > 100 µM | > 100 µM | > 100 µM | > 100 µM | > 100 µM | > 100 µM
3 | Cc1cc(O)c2c(c1)OC1(C)CCC3C(C)(C)CCCC34COC2C14 (centres undefined) | 26.8 µM | 29.1 µM | – | 28.1 µM | 46.3 µM | 30 µM | – | 28.8 µM
4 | CNC(=O)NCCCCC(NC(C)=O)C(=O)NCc1ccccc1 (centres undefined) | > 100 µM | > 100 µM | > 100 µM | > 100 µM | – | > 100 µM | > 100 µM | > 100 µM
5 | C=C(c1ccccc1)c1cc2c(=O)[nH]ccc2n1C | > 100 µM | > 100 µM | > 100 µM | > 100 µM | 46.3 µM | > 100 µM | – | > 100 µM
6 | O=C(C#Cc1ccccc1)NC/C=C/c1ccccc1 | > 100 µM | > 100 µM | – | 99.2 µM | > 100 µM | > 100 µM | > 100 µM | > 100 µM
7 | O=C(O)C1CC2C=CCC(C2)C1 (centres undefined) | > 100 µM | > 100 µM | > 100 µM | – | > 100 µM | > 100 µM | > 100 µM | > 100 µM
8 | CC(NC1CCCC[C@@H]1O)c1ccccc1 (some centres undefined) | > 100 µM | > 100 µM | > 100 µM | > 100 µM | > 100 µM | > 100 µM | > 100 µM | > 100 µM
9 | O=C1N=C2N=C(c3ccc(Cl)cc3)N(c3ccc(Cl)cc3)N2Sc2ccccc21 | > 100 µM | > 100 µM | > 100 µM | > 100 µM | > 100 µM | > 100 µM | > 100 µM | > 100 µM
10 | COc1c2c(c(O)c3c4c(c(C)cc13)C1OC3(C(OC)OC5CC(C)(O)C(OC6CC(C)(O)C(O)C(C)O6)C(C)O5)OC1C(OC)(O4)C31CO1)C(=O)C(O)CC2OC1CC(C)(O)C(OC(C)=O)C(C)O1 (centres undefined) | < 0.01 µM | 0.0156 µM | < 0.01 µM | < 0.01 µM | 1.66 µM | 1.23 µM | – | < 0.01 µM
11 | C/C(=C\c1ccccc1)C(=O)c1c(C)cc(C)cc1C | > 100 µM | > 100 µM | > 100 µM | – | > 100 µM | > 100 µM | > 100 µM | > 100 µM
12 | c1ccc(N2CCN(CCN3CCc4c([nH]c5ccccc45)C3c3cccnc3)CC2)cc1 (centres undefined) | > 100 µM | > 100 µM | > 100 µM | > 100 µM | > 100 µM | > 100 µM | > 100 µM | > 100 µM
13 | O=C(NCCCN1CCN(CCCNC(=O)Nc2cc(Cl)ccc2Cl)CC1)Nc1cc(Cl)ccc1Cl | > 100 µM | > 100 µM | > 100 µM | – | > 100 µM | > 100 µM | > 100 µM | 34 µM
14 | COC(=O)C1=C(O)c2cc(OC)c(OC)c(OC)c2C(c2ccc3c(c2)OCO3)[C@@H]1C(=O)OC (some centres undefined) | 5.3 µM | 10.7 µM | > 100 µM | 31.7 µM | > 100 µM | > 100 µM | 12.7 µM | > 100 µM
15 | COc1ccc(OCC(=O)O)c2c1CCC(C)C2=O (centres undefined) | > 100 µM | > 100 µM | > 100 µM | > 100 µM | > 100 µM | > 100 µM | > 100 µM | > 100 µM
16 | Cc1nc(Nc2ccc(Cl)cc2)sc1C(=O)Nc1cccc2c(=O)[nH][nH]c(=O)c12 | 40.4 µM | 86.2 µM | – | > 100 µM | 47.3 µM | > 100 µM | 41.6 µM | > 100 µM
17 | Nc1ccc(C(=O)N/C(=C\c2ccc3c(c2)OCO3)c2nc3ccccc3s2)cc1 | 30.8 µM | 23.9 µM | – | 27.9 µM | 38 µM | 23.6 µM | 25.8 µM | –
18 | COC(OC)c1cccnc1C | > 100 µM | > 100 µM | – | – | > 100 µM | > 100 µM | > 100 µM | > 100 µM
19 | COC(=O)CCC(NC(=S)N/N=C(\C)c1cccs1)C(=O)OC (centres undefined) | > 100 µM | > 100 µM | – | > 100 µM | > 100 µM | > 100 µM | > 100 µM | > 100 µM
20 | O=C1C(=O)N(c2cc(Cl)ccc2Cl)C(=O)C(=O)C1c1nc2ccccc2s1 | > 100 µM | > 100 µM | > 100 µM | – | > 100 µM | > 100 µM | > 100 µM | > 100 µM
21 | CN(C)C(=S)/N=c1\ssc(=Nc2ccccc2)n1-c1ccccc1 | 28.3 µM | 44.2 µM | – | 68.9 µM | > 100 µM | > 100 µM | > 100 µM | > 100 µM
